Reference: the supplement of paper PMC6965134
± gives the standard deviation of the averaged measurements.

Assay: TIMS collisional cross section (CCS, N2) of the lipid ion; higher = larger ion cross section
Details: ionization mode: positive, one isomer drawn

| Structure (SMILES) | TIMS collisional cross section (sample type: HeLa) | TIMS collisional cross section (sample type: Liver) | TIMS collisional cross section (sample type: plasma) |
| --- | --- | --- | --- |
| CCCCCC/C=C\CCCCCCCC(=O)OC[C@@H](COC(=O)CCCCCCCCCCCCC)OC(=O)CCCCCCCCCCCCCCC [TG 14:0_16:0_16:1] (ion (formula + adduct): [C49H92O6+NH4] 1+) | 306.03 ± 0.35 Å² | 306.1 Å² | 306 ± 0.3 Å² |
| CCCCCCCCCCCCCCC(=O)O[C@H](COC(=O)CCCCCCCCCCC)COP(=O)([O-])OCC[N+](C)(C)C [PC 12:0_15:0@] (ion (formula + adduct): [C35H70NO8P+H] 1+) | – | – | 269.3 Å² |
| CCCCCCCC/C=C\CCCCCCCC(=O)OC[C@@H](COC(=O)CCCCCCCCCCCCCCC)OC(=O)CCCCCCCCCCCCCCCC [TG 16:0_17:0_18:1] (ion (formula + adduct): [C54H102O6+NH4] 1+) | 321.9 Å² | 321.6 Å² | 321.6 Å² |
| CC/C=C\C/C=C\C/C=C\C/C=C\C/C=C\CCCC(=O)OC[C@@H](O)COP(=O)(O)OCCN [LPE 20:5] (ion (formula + adduct): [C25H42NO7P+H] 1+) | – | – | 210.7 Å² |
| CC/C=C\C/C=C\C/C=C\C/C=C\CCCCCCC(=O)O[C@H](COCCCCCCCCCC/C=C\CCCCCCCC)COP(=O)([O-])OCC[N+](C)(C)C [PC O- 20:1@_20:4] (ion (formula + adduct): [C48H88NO7P+H] 1+) | – | 299.9 Å² | – |
| CCCCCCC/C=C\CCCCCCCC(=O)O[C@@H](COC(=O)CCCCCCC/C=C\CCCCCCCC)COC(=O)CCCCCCCCCCCCCCCC [TG 17:0_17:1_18:1] (ion (formula + adduct): [C55H102O6+NH4] 1+) | 322.1 Å² | 322.4 Å² | 322.7 Å² |
| CCCCCC/C=C\CCCCCCCC(=O)O[C@H](COC(=O)CCCCCCCCCCCCC)COP(=O)([O-])OCC[N+](C)(C)C [PC 14:0_16:1@] (ion (formula + adduct): [C38H74NO8P+H] 1+) | 276.5 Å² | – | – |
| CCCCCCCC/C=C\CCCCCCCCCC(=O)O[C@H](COC(=O)CCCCCCC/C=C\CCCCCCCC)COC(=O)CCCCCCCCCCCCCCCCCCCC [TG 18:1_20:1_21:0] (ion (formula + adduct): [C62H116O6+NH4] 1+) | – | 342.9 Å² | – |
| CCCCCCCCCCCCCCCCCCCC(=O)OC[C@@H](O)COP(=O)([O-])OCC[N+](C)(C)C [LPC 20:0_0:0] (ion (formula + adduct): [C28H58NO7P+H] 1+) | – | – | 245 Å² |
| CC/C=C\C/C=C\C/C=C\C/C=C\C/C=C\C/C=C\CCC(=O)OC[C@@H](COC(=O)CCCCCCC/C=C\CCCCCCCC)OC(=O)CCCCCCC/C=C\CCCCCCCC [TG 18:1_18:1_22:6] (ion (formula + adduct): [C61H102O6+NH4] 1+) | 331.3 Å² | – | – |
| CC/C=C\C/C=C\C/C=C\C/C=C\C/C=C\CCCCCC(=O)OC[C@@H](COC(=O)CCCCCCC/C=C\CCCCCCC)OC(=O)CCCCCCC/C=C\CCCCCCCC [TG 17:1_18:1_22:5] (ion (formula + adduct): [C60H102O6+NH4] 1+) | 328.8 Å² | – | – |
| CCCC/C=C\CCCCCCCC(=O)O[C@H](COC(=O)CCCCCCCCCCC)COC(=O)CCCCCCCCCCCCCCC [TG 12:0_14:1_16:0] (ion (formula + adduct): [C45H84O6+NH4] 1+) | – | – | 291.9 Å² |
| CCCCC/C=C\C/C=C\CCCCCCCC(=O)OC[C@@H](COC(=O)CCCCCCC/C=C\CCCCCCCC)OC(=O)CCCCCCC/C=C\CCCCCCCC [TG 18:1_18:1_18:2] (ion (formula + adduct): [C57H102O6+NH4] 1+) | 324.3 Å² | – | 324.25 ± 0.35 Å² |
| CCCCC/C=C\C/C=C\CCCCCCCC(=O)OC[C@H](COP(=O)(O)OCCN)OC(=O)CCCCCCC/C=C\CCCCCC [PE 18:2_16:1] (ion (formula + adduct): [C39H72NO8P+H] 1+) | – | 268.7 Å² | – |
| CCCCCCCC/C=C\CCCCCCCC(=O)O[C@@H](CO)COC(=O)CCCCCCCCCCCCCCCCC [DG 18:0_18:1_0:0] (ion (formula + adduct): [C39H74O5+NH4] 1+) | – | 269.6 Å² | – |
| CCCCCC/C=C/CCCCCCCCCC(=O)OC[C@H](CO)OC(=O)CCCCCCCCCCCCCCC [DG 18:1_16:0_0:0] (ion (formula + adduct): [C37H70O5+H] 1+) | 257.7 Å² | – | – |
| CCCCCCCC/C=C\CCCCCCCC(=O)OC[C@@H](COC(=O)CCCCCCCCCCCCC)OC(=O)CCCCCCCCCCCCCCC [TG 14:0_16:0_18:1] (ion (formula + adduct): [C51H96O6+NH4] 1+) | 311.9 ± 0.14 Å² | 312.4 Å² | 312.07 ± 0.22 Å² |
